Laboratory results reported in ChEMBL document CHEMBL1136230, “Antiallergic principles from Alpinia galanga: structural requirements of phenylpropanoids for inhibition of degranulation and release of TNF-alpha and IL-4 in RBL-2H3 cells” (Bioorg Med Chem Lett, 2003).

How the values were obtained:
RBL-2H3 [1] = experiment: Percentage inhibition against release of beta-hexosaminidase from RBL-2H3 cells at 100 uM from control; format: functional; details: Rattus norvegicus
RBL-2H3 [2] = experiment: Inhibitory activity against IL-4 production in RBL-2H3 cells was determined; format: functional, cell-based; details: Rattus norvegicus
Mus musculus [3] = experiment: In vivo inhibitory activity against leakage of dye on ear PCA reaction 30 min after 50 mg/kg oral administration in mice; format: functional; set-up: scale not given: the % may be the effect or the level left
RBL-2H3 [4] = experiment: Percentage inhibition against antigen-induced TNF-alpha production in RBL-2H3 cells at 0 uM concentration; format: functional, Rattus norvegicus
RBL-2H3 [5] = experiment: Percentage inhibition against antigen-induced IL-4 production in RBL-2H3 cells at 3 uM concentration; format: functional; details: Rattus norvegicus
RBL-2H3 [6] = experiment: Percentage inhibition against antigen-induced IL-4 production in RBL-2H3 cells at 100 uM concentration; format: functional; details: Rattus norvegicus
RBL-2H3 [7] = experiment: Inhibitory activity against TNF-alpha production in RBL-2H3 cells was determined; format: functional, cell-based; details: Rattus norvegicus
RBL-2H3 [8] = experiment: Percentage inhibition against antigen-induced IL-4 production in RBL-2H3 cells at 10 uM concentration; format: functional; details: Rattus norvegicus
RBL-2H3 [9] = experiment: Percentage inhibition against antigen-induced TNF-alpha production in RBL-2H3 cells at 30 uM concentration; format: functional; details: Rattus norvegicus
RBL-2H3 [10] = experiment: Percentage inhibition against antigen-induced IL-4 production in RBL-2H3 cells at 0 uM concentration; format: functional, Rattus norvegicus
Mus musculus [11] = experiment: In vivo inhibitory activity against leakage of dye on ear PCA reaction 30 min after 25 mg/kg oral administration in mice; format: functional; set-up: scale not given: the % may be the effect or the level left
RBL-2H3 [12] = experiment: Inhibitory activity against release of beta-hexosaminidase from RBL-2H3 cells; format: functional, cell-based; details: Rattus norvegicus
RBL-2H3 [13] = experiment: Percentage inhibition against antigen-induced IL-4 production in RBL-2H3 cells at 30 uM concentration; format: functional; details: Rattus norvegicus
Mus musculus [14] = experiment: In vivo inhibitory activity against leakage of dye on ear PCA reaction 30 min after 12.5 mg/kg oral administration in mice; format: functional; set-up: scale not given: the % may be the effect or the level left
RBL-2H3 [15] = experiment: Percentage inhibition against antigen-induced TNF-alpha production in RBL-2H3 cells at 10 uM concentration; format: functional; details: Rattus norvegicus
Mus musculus [16] = experiment: In vivo inhibitory activity against leakage of dye on ear PCA reaction 30 min after 6.25 mg/kg oral administration in mice; format: functional; set-up: scale not given: the % may be the effect or the level left
RBL-2H3 [17] = experiment: Percentage inhibition against antigen-induced TNF-alpha production in RBL-2H3 cells at 3 uM concentration; format: functional; details: Rattus norvegicus
RBL-2H3 [18] = experiment: Percentage inhibition against antigen-induced TNF-alpha production in RBL-2H3 cells at 100 uM concentration; format: functional; details: Rattus norvegicus
Mus musculus [19] = experiment: In vivo inhibitory activity against leakage of dye on ear PCA reaction 30 min after 400 mg/kg oral administration in mice; format: functional; set-up: scale not given: the % may be the effect or the level left
Mus musculus [20] = experiment: In vivo inhibitory activity against leakage of dye on ear PCA reaction 30 min after 100 mg/kg oral administration in mice; format: functional; set-up: scale not given: the % may be the effect or the level left
Mus musculus [21] = experiment: In vivo inhibitory activity against leakage of dye on ear PCA reaction 30 min after 200 mg/kg oral administration in mice; format: functional; set-up: scale not given: the % may be the effect or the level left

C=C[C@H](OC(C)=O)c1ccccc1 gave an inhibition at 100 µM (RBL-2H3 [1]) of 9%.

With C=CCc1ccc(OC(C)=O)cc1 the inhibition at 100 µM (RBL-2H3 [1]) was 11%.

Compound OC/C=C/c1ccc(O)cc1 has an inhibition at 100 µM (RBL-2H3 [1]) of 2%.

For C=C[C@H](OC(C)=O)c1ccc(OC(C)=O)c(OC)c1, the IC50 (RBL-2H3 [2]) was 12 µM, the Control (Mus musculus [3]) was 37.8% and the Inhibition (RBL-2H3 [4]) was 0%. For the same compound, the inhibition at 3 µM (RBL-2H3 [5]) was 39.4%, the inhibition at 100 µM (RBL-2H3 [6]) was 99.9% and the IC50 (RBL-2H3 [7]) was 5.8 µM. It also gave an inhibition at 10 µM (RBL-2H3 [8]) of 45.9%, an inhibition at 30 µM (RBL-2H3 [9]) of 101% and an Inhibition (RBL-2H3 [10]) of 0%. The Control (Mus musculus [11]) was 54.7%, the IC50 (RBL-2H3 [12]) was 19 µM and the inhibition at 30 µM (RBL-2H3 [13]) was 98.1%. The Control (Mus musculus [14]) was 58.4%, the inhibition at 10 µM (RBL-2H3 [15]) was 89% and the Control (Mus musculus [16]) was 65.2%. For the same compound, the inhibition at 3 µM (RBL-2H3 [17]) was 25%.

In the case of CC(=O)OC/C=C/c1ccc(O)cc1, the inhibition at 100 µM (RBL-2H3 [1]) is reported as 6%.

With C=CCc1ccc(O[C@H]2O[C@@H](CO)[C@H](O)[C@H](O)[C@@H]2O)cc1 the inhibition at 100 µM (RBL-2H3 [1]) was 0%.

C=C[C@H](O)c1ccc(OC(C)=O)cc1 gave an inhibition at 100 µM (RBL-2H3 [1]) of 4%.

Compound C=C[C@H](O)c1ccccc1 has an inhibition at 100 µM (RBL-2H3 [1]) of 3%.

With CC[C@H](OC(C)=O)c1ccc(OC(C)=O)cc1 the IC50 (RBL-2H3 [12]) was 60 µM.

CC(=O)OC/C=C/c1ccc(OC(C)=O)cc1 was tested, and the IC50 (RBL-2H3 [12]) was over 100 µM and the inhibition at 100 µM (RBL-2H3 [1]) was 21%.

O=C(O)/C=C/c1cccc(O)c1 gave an inhibition at 100 µM (RBL-2H3 [1]) of 1%.

In the case of C=C[C@H](OC(C)=O)c1ccc(OC(C)=O)cc1 [1'-ACETOXYCHAVICOL ACETATE], the IC50 (RBL-2H3 [2]) is reported as 12 µM, the Control (Mus musculus [3]) is reported as 44.3% and the Inhibition (RBL-2H3 [4]) is reported as 0%. It also gave an inhibition at 3 µM (RBL-2H3 [5]) of 39.4%, an inhibition at 100 µM (RBL-2H3 [18]) of 87.2% and an inhibition at 100 µM (RBL-2H3 [6]) of 99.9%. It also gave an IC50 (RBL-2H3 [7]) of 17 µM, an inhibition at 10 µM (RBL-2H3 [8]) of 45.9% and an inhibition at 30 µM (RBL-2H3 [9]) of 66.9%. The Inhibition (RBL-2H3 [10]) was 0%, the Control (Mus musculus [11]) was 49.5% and the IC50 (RBL-2H3 [12]) was 15 µM. For the same compound, the inhibition at 30 µM (RBL-2H3 [13]) was 98.1%, the Control (Mus musculus [14]) was 65.5% and the inhibition at 10 µM (RBL-2H3 [15]) was 32.4%. It also gave a Control (Mus musculus [16]) of 72.4% and an inhibition at 3 µM (RBL-2H3 [17]) of 5.4%.

Work on COc1ccc(/C=C/C(=O)O)cc1 [4-METHOXYCINNAMIC ACID] yielded an inhibition at 100 µM (RBL-2H3 [1]) of 11%.

In the case of O=C(O)/C=C/c1ccc(O)c(O)c1 [CAFFEIC ACID], the inhibition at 100 µM (RBL-2H3 [1]) is reported as 5%.

In the case of C=CCc1ccc(O)cc1 [CHAVICOL], the inhibition at 100 µM (RBL-2H3 [1]) is reported as 3%.

For O=C(O)/C=C/c1ccccc1 [CINNAMIC ACID], the inhibition at 100 µM (RBL-2H3 [1]) was 7%.

Compound O=C(O)/C=C/c1ccc(O)cc1 [COUMARIC ACID] has an inhibition at 100 µM (RBL-2H3 [1]) of 6%.

C=CCc1ccc(O)c(OC)c1 [EUGENOL] showed an inhibition at 100 µM (RBL-2H3 [1]) of 4%.

With C=CCc1ccc(OC(C)=O)c(OC)c1 [EUGENYL ACETATE] the inhibition at 100 µM (RBL-2H3 [1]) was 9%.

With C=CCc1ccc(O)c(O)c1 [HYDROXYCHAVICOL] the IC50 (RBL-2H3 [12]) was over 100 µM and the inhibition at 100 µM (RBL-2H3 [1]) was 17%.

O=c1cc(-c2ccc(O)c(O)c2)oc2cc(O)cc(O)c12 [LUTEOLIN] was tested, and the IC50 (RBL-2H3 [2]) was 3.7 µM, the Inhibition (RBL-2H3 [4]) was 0% and the inhibition at 3 µM (RBL-2H3 [5]) was 41.6%. For the same compound, the IC50 (RBL-2H3 [7]) was 5.8 µM, the inhibition at 10 µM (RBL-2H3 [8]) was 89.4% and the inhibition at 30 µM (RBL-2H3 [9]) was 101%. It also gave an Inhibition (RBL-2H3 [10]) of 0%, an inhibition at 30 µM (RBL-2H3 [13]) of 99.2% and an inhibition at 10 µM (RBL-2H3 [15]) of 89%. It also gave an inhibition at 3 µM (RBL-2H3 [17]) of 25%.

In the case of C=CCc1ccc(OC)c(OC)c1 [METHYLEUGENOL], the inhibition at 100 µM (RBL-2H3 [1]) is reported as 1%.

Work on COc1ccc(/C=C/C(=O)O)cc1OC [O,O'-DIMETHYLCAFFEIC ACID] yielded an inhibition at 100 µM (RBL-2H3 [1]) of 9%.

Work on O=C(O)/C=C/c1ccccc1O [O-COUMARIC ACID] yielded an inhibition at 100 µM (RBL-2H3 [1]) of 11%.

COc1cc(/C=C/C(=O)O)cc(OC)c1O [SINAPINATE] was tested, and the inhibition at 100 µM (RBL-2H3 [1]) was 10%.

For COc1ccc(/C=C/C(=O)Nc2ccccc2C(=O)O)cc1OC [TRANILAST], the Control (Mus musculus [19]) was 42.7%, the Control (Mus musculus [20]) was 66% and the Control (Mus musculus [21]) was 49.8%.

Work on O=C/C=C/c1ccc(O)cc1 [p-HYDROXYCINNAMALDEHYDE] yielded an IC50 (RBL-2H3 [12]) of over 100 µM and an inhibition at 100 µM (RBL-2H3 [1]) of 22%.
